{"source": "patent US20200246284A1", "about": "(Academia Sinica, priority 2015, published 2020)", "key": {"[1]": {"tested_on": "U2932", "settings": "human", "experimental": "(§1) After 72 hours, the cultures were pulsed with Alamar Blue overnight, and the fluorescent intensity of resulted cultures was measured by a Synergy H1 plate-reader (BioTek Inc)."}, "[2]": {"tested_on": "Ly3 (OCI-LY3)", "settings": "human", "experimental": "as §1"}, "[3]": {"tested_on": "Z-138", "assay": "Combination with BO-1055, MCL (Tables 28, 29)", "type": "cell-based, human", "settings": "read-out: IC50 single drug"}, "[4]": {"tested_on": "REC-1", "assay": "Combination with BO-1055, MCL (Tables 28, 29)", "type": "cell-based, human", "settings": "read-out: IC50 single drug"}, "[5]": {"tested_on": "DLBCL (GBC) cell lines", "assay": "Combination of BO-1055 with PUH71, TT46, bortezomib, doxorubicin (Table 25)", "type": "cell-based", "settings": "Homo sapiens"}, "[6]": {"tested_on": "Pfeiffer", "settings": "human", "experimental": "as §1"}, "[7]": {"tested_on": "ICR mice", "assay": "Acute intravenous 14-day toxicity", "settings": "for Mortality (N/N): 14 days"}, "[8]": {"molecular_target": "hERG (Homo sapiens, UniProt Q12809)", "sequence (Q12809 whole entry)": "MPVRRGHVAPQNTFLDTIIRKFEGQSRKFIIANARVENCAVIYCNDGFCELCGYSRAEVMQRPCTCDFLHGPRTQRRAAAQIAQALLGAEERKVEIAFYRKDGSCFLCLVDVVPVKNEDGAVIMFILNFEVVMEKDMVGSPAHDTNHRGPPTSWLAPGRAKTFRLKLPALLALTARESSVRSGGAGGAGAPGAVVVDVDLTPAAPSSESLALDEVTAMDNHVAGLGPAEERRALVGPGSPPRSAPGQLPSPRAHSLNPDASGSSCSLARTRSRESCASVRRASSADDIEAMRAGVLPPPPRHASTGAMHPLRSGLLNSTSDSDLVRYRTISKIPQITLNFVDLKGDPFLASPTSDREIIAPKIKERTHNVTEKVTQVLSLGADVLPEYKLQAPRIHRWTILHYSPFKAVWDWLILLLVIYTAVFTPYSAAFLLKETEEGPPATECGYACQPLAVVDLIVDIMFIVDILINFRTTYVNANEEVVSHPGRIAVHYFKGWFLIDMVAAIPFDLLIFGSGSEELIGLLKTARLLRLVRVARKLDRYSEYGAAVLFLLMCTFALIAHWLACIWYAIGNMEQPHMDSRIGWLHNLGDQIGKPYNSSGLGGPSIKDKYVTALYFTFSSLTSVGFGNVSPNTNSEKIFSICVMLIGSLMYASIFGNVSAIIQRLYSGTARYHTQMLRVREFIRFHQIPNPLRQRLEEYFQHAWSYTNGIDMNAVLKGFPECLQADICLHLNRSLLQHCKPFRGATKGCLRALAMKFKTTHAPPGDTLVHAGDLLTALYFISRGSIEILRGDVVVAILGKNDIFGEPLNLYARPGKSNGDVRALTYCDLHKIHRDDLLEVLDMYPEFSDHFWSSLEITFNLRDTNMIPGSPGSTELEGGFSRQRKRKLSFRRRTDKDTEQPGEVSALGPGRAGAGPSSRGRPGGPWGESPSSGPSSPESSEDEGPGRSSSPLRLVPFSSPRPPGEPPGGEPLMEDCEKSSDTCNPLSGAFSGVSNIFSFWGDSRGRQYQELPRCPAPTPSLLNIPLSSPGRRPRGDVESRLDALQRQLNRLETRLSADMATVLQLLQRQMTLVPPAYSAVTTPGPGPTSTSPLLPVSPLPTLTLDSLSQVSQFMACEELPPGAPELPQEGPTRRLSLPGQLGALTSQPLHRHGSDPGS", "assay": "in vitro"}, "[9]": {"tested_on": "H3122", "type": "cell-based, human"}, "[10]": {"tested_on": "H125", "type": "cell-based, human"}, "[11]": {"tested_on": "CL100T1", "type": "cell-based, human"}, "[12]": {"tested_on": "HCC364", "type": "cell-based, human"}, "[13]": {"tested_on": "PC9/gefb4", "type": "cell-based, human"}, "[14]": {"tested_on": "H719", "assay": "Cytotoxicity SCLC 72 hr alamar blue", "type": "cell-based, human"}, "[15]": {"tested_on": "H1395", "type": "cell-based, human"}, "[16]": {"tested_on": "CL97", "type": "cell-based, human"}, "[17]": {"tested_on": "H322", "type": "cell-based, human"}, "[18]": {"tested_on": "H187", "assay": "Cytotoxicity SCLC 72 hr alamar blue", "type": "cell-based, human"}, "[19]": {"tested_on": "HS578 breast epithelium", "assay": "Cytotoxicity normal tissue 72 hr", "type": "cell-based, human"}}, "note": "Several values for one entry are separate records, joined by “and”; a condition that tells them apart may be missing. Equal entries are not always repeated. Where two headings read alike, the source gives them in different places."}
{"compound": "CN(C)CCNC(=O)c1cccc(NC(=O)Nc2ccc(N(CCCl)CCCl)cc2)c1", "note": "[BO-1055, Ureidomustine]", "values": [{"measurement": "IC50", "setting": "[1]", "result": 2.22, "unit": "µM"}, {"measurement": "IC50", "setting": "[2]", "result": 3.5, "unit": "µM"}, {"measurement": "IC50", "setting": "[3]", "result": "0.299 µM and 0.303 µM and 0.301 µM"}, {"measurement": "IC50", "setting": "[4]", "result": "17.7 µM and 12.5 µM and 19.3 µM"}, {"measurement": "IC50", "setting": "[5]; KARPAS-422, read-out: IC50 single agent", "result": 5.85, "unit": "µM"}, {"measurement": "IC50", "setting": "[5]; OCI-LY19, read-out: IC50 single agent", "result": 0.287, "unit": "µM"}, {"measurement": "IC50", "setting": "[5]; OCI-Ly8, read-out: IC50 single agent", "result": 0.224, "unit": "µM"}, {"measurement": "IC50", "setting": "[5]; OCI-Ly18, read-out: IC50 single agent", "result": 0.608, "unit": "µM"}, {"measurement": "IC50", "setting": "[5]; SU-DHL-4, read-out: IC50 single agent", "result": 1.95, "unit": "µM"}, {"measurement": "IC50", "setting": "[5]; SU-DHL-5, read-out: IC50 single agent", "result": 4.14, "unit": "µM"}, {"measurement": "IC50", "setting": "[5]; SU-DHL-6, read-out: IC50 single agent", "result": 5.93, "unit": "µM"}, {"measurement": "IC50", "setting": "[5]; Toledo, read-out: IC50 single agent", "result": 8.95, "unit": "µM"}, {"measurement": "IC50", "setting": "[5]; read-out: IC50 single agent", "result": 3.19, "unit": "µM"}, {"measurement": "IC50", "setting": "[6]", "result": 3.87, "unit": "µM"}, {"measurement": "Post dosing deaths at >1 hr", "setting": "[7]; 50 mg/kg", "result": 0}, {"measurement": "Mortality (N/N)", "setting": "[7]; 50 mg/kg i.v.", "result": "0/6"}, {"measurement": "Post dosing deaths at >1 hr", "setting": "[7]; 60 mg/kg", "result": 0}, {"measurement": "Mortality (N/N)", "setting": "[7]; 60 mg/kg i.v.", "result": "0/6"}, {"measurement": "Post dosing deaths at >1 hr", "setting": "[7]; 70 mg/kg", "result": 1}, {"measurement": "Mortality (N/N)", "setting": "[7]; 70 mg/kg i.v.", "result": "1/6"}, {"measurement": "Post dosing deaths at >1 hr", "setting": "[7]; 80 mg/kg", "result": 6}, {"measurement": "Mortality (N/N)", "setting": "[7]; 80 mg/kg i.v.", "result": "all mice died and 6/6"}, {"measurement": "Post dosing deaths at >1 hr", "setting": "[7]; 100 mg/kg", "result": 6}, {"measurement": "Mortality (N/N)", "setting": "[7]; 100 mg/kg i.v.", "result": "6/6"}, {"measurement": "IC50", "setting": "[8]", "result": "12.6 ± 1.64", "unit": "µM"}]}
{"compound": "N.N.[Cl][Pt][Cl]", "note": "[Cisplatin]", "values": [{"measurement": "IC50", "setting": "[9]", "result": "≥ 30", "unit": "µM"}, {"measurement": "IC50", "setting": "[10]", "result": 1.5, "unit": "µM"}, {"measurement": "IC50", "setting": "[11]", "result": 2.8, "unit": "µM"}, {"measurement": "IC50", "setting": "[12]", "result": "≥ 75", "unit": "µM"}, {"measurement": "IC50", "setting": "[13]", "result": "≥ 35", "unit": "µM"}, {"measurement": "IC50", "setting": "[14]", "result": 1.12, "unit": "µM"}, {"measurement": "IC50", "setting": "[15]", "result": "≥ 15", "unit": "µM"}, {"measurement": "IC50", "setting": "[16]", "result": "< 15", "unit": "µM"}, {"measurement": "IC50", "setting": "[17]", "result": "≥ 10", "unit": "µM"}, {"measurement": "IC50", "setting": "[18]", "result": 1.01, "unit": "µM"}, {"measurement": "IC50", "setting": "[19]", "result": "> 100", "unit": "µM"}]}
